Source: patent US6545155B2, “Fused heteroaromatic glucokinase activators” (Hoffmann-La Roche Inc., priority 2000, dated 2003)

system: C57BL/6J mice; test: Glucokinase activator in vivo screen protocol (blood glucose after oral dosing); details: administered orally, 50 mg/kg, C57BL/6J mice fasted two hours, blood glucose vs vehicle over six hours post dose
Experimental: (Glucokinase Activator in Vivo Screen Protocol
C57BL/6J mice are orally dosed via gavage with Glucokinase (GK) activator at 50 mg/kg body weight following a two hour fasting period. Blood glucose determinations are made five times during the six hour post-dose study period.
Mice (n=6) are weighed and fasted for a two hour period prior to oral treatment. GK activators are formulated at 6.76 mg/ml in Gelucire vehicle (Ethanol:Gelucire44/14:PEG400q.s. 4:66:30 v/w/v. Mice are dosed orally with 7.5 μL formulation per gram of body weight to equal a 50 mg/kg dose. Immediately prior to dosing, a pre dose (time zero) blood glucose reading is acquired by snipping off a small portion of the animals tail (˜1 mm) and collecting 15 μL blood into a heparinized capillary tube for analysis. Following GK activator administration, additional blood glucose readings are taken at 1, 2, 4, and 6 hours post dose from the same tail wound. Results are interpreted by comparing the mean blood glucose values of six vehicle treated mice with six GK activator treated mice over the six hour study duration.

Row | SMILES | glucokinase activator in vivo activity
1 | CS(=O)(=O)c1ccc([C@@H](CC2CCCC2)C(=O)Nc2nc3ccccc3s2)cc1Cl [Example 19, N-Benzothiazol-2-yl-2(R)-(3-chloro-4-methanesulfonyl-phenyl)-3-cyclopentyl-propionamide] | excellent glucokinase activator in vivo activity
2 | CS(=O)(=O)c1ccc(C(CC2CCCC2)C(=O)Nc2nc3ccccc3[nH]2)cc1Cl (stereo not drawn) [Example 20, N-(1H-Benzoimidazol-2-yl)-2-(3-chloro-4-methanesulfonyl-phenyl)-3-cyclopentyl-propionamide] | excellent glucokinase activator in vivo activity
3 | CS(=O)(=O)c1ccc(C(CC2CCCC2)C(=O)Nc2ccc3ccccc3n2)cc1Cl (stereo not drawn) [Example 22, 2-(3-Chloro-4-methanesulfonyl-phenyl)-3-cyclopentyl-N-quinolin-2-yl-propionamide] | excellent glucokinase activator in vivo activity
